Measurements taken from patent US8470311B2, “Therapeutic agent for anaerobic diseases” (priority 2008, dated 2013).
Entries after “also recorded” stand apart in the source; their conditions may differ.

How the values were obtained:
[1] = test system: Human breast cancer cell line KPL-1; test: Tumor growth suppression by B. longum Re-105A/pBifiCD, 5-FC and maltose or lactulose, KPL-1 tumor-bearing nude mice; format: in vivo, nude mouse
[2] = test system: Human stomach cancer cell line MKN45; test: Tumor growth suppression by B. longum Re-105A/pBifiCD, 5-FC and maltose, MKN45 tumor-bearing nude rats; format: in vivo, nude rat; conditions: maltose 200 mg/body/day ip with bacteria and 5-FC
[3] = test system: Human breast cancer cell line KPL-1; conditions: 10% maltose ip versus saline

Compound: OC[C@H]1O[C@@H](O[C@@H]2[C@@H](CO)OC(O)(CO)[C@H]2O)[C@H](O)[C@@H](O)[C@H]1O (mixture of isomers) [lactulose]
- Mice died during test ([1]; Group C: bacteria, 5-FC, 20% (w/v) lactulose 1 mL ip once a day, deaths Day 13 and Day 19): two mice had died during the administration period
- Effect of lactulose, conclusion of the test ([1]; lactulose 200 mg/day ip with bacteria and 5-FC): can enhance the antitumor effect of B. longum Re-105A/pBifiCD

Compound: OC[C@H]1O[C@H](O[C@H]2[C@H](O)[C@@H](O)[C@H](O)O[C@@H]2CO)[C@H](O)[C@@H](O)[C@@H]1O [Maltose]
- Effect of maltose, conclusion of the test [2]: effect in promoting specific colonization of B. longum Re-105A/pBifiCD in tumor tissue, and an effect in promoting proliferation and an effect in maintaining proliferation in tumor tissue
- Effect of maltose on colonization and proliferation in tumor tissue [3]: effect in promoting specific colonization of B. longum Re-105A/pBifiCD in tumor tissue; also recorded: effect in promoting the proliferation and an effect of maintaining the proliferation of B. longum Re-105A/pBifiCD in tumor tissue
